PubChem BioAssay (NCI)
“And” between values parts separate entries of the source, which are not always exact repeats. Equal values may be shown once.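 Briefly, cells in 96-well plates were exposed to five compound concentrations for 48 h, and endpoints were estimated by linear interpolation. GI50 = concentration required for 50% inhibition of growth. Definition used: TGI = concentration required for complete inhibition of growth.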

What was measured:
Test in all cases: inhibition of tumour cell growth, NCI panel, 48 h
[1] = system: BT-549 breast
[2] = system: SK-MEL-2 melanoma
[3] = system: A549 NSCLC
[4] = system: KM12 colon
[5] = system: COLO 205 colon
[6] = system: SNB-75 CNS
[7] = system: NCI-H522 lung
[8] = system: HS 578T breast
[9] = system: CAKI-1 renal
[10] = system: OVCAR-4 ovarian

Row | Compound | GI50 [1] | TGI [1] | GI50 [2] | TGI [2] | GI50 [3] | TGI [3] | GI50 [4] | TGI [4] | GI50 [5] | TGI [5] | GI50 [6] | TGI [6] | GI50 [7] | TGI [7] | GI50 [8] | TGI [8] | GI50 [9] | TGI [9] | TGI [10] | GI50 [10]
1 | O=c1cc(N/N=C/c2ccc(F)cc2)c2cc(Cl)ccc2[nH]1 | 15.8 µM | 44.5 µM | 18.3 µM | 69.3 µM | 23.5 µM | > 100 µM | 22 µM | > 100 µM | 18.2 µM | 43.5 µM | 12.7 µM | 83.1 µM | 17.4 µM | 74.3 µM | 25.3 µM | > 100 µM | 23.5 µM | > 100 µM | – | –
2 | CC1=Nc2ccccc2/C1=C\c1c(C)[nH]c2ccccc12 | – | 15.1 µM | – | 47.3 µM | – | 73.6 µM | – | 26 µM | – | 53.2 µM | – | 71.5 µM | – | 23.6 µM | – | 47.2 µM | – | 29.1 µM | 47.1 µM | –
3 | CSCCCNC(=O)c1ccc2c(c1)/C(=C/c1[nH]c(C)cc1C)C(=O)N2 | 2.7 µM | > 100 µM | 0.356 µM | 4.42 µM | 2.75 µM | > 100 µM | 0.43 µM | > 100 µM | 0.943 µM | > 100 µM | – | – | 0.843 µM | > 100 µM | 0.853 µM | > 100 µM | – | – | – | –
4 | O=c1[nH]c2nc(NC3CCOCC3)ncc2cc1Oc1ccc(F)cc1F | > 25 µM | > 25 µM | > 25 µM | > 25 µM | > 25 µM | > 25 µM | > 25 µM | > 25 µM | > 25 µM | > 25 µM | > 8.27 µM | > 25 µM | > 25 µM | > 25 µM | > 25 µM | > 25 µM | > 25 µM | > 25 µM | > 25 µM | > 25 µM
5 | CC(C)=CCC(OC(=O)C=C(C)C)C1=CC(=O)c2c(O)ccc(O)c2C1=O (centres undefined) | 0.59 µM | 1.98 µM | 2.97 µM | 12.1 µM and 5.85 µM | – | 18.7 µM | 6.61 µM | 23.9 µM and 6.52 µM | 0.751 µM | 2.12 µM and 1.37 µM | 3.87 µM | 16.3 µM and 13.7 µM | 0.414 µM and 0.104 µM | 1.84 µM and 0.231 µM | 14.3 µM | 65.2 µM | – | 3.12 µM and 2 µM | 4.16 µM and 1.48 µM | 1.73 µM
6 | C=CC(=O)Nc1cc(N2CCN(CC)CC2)ccc1Nc1cc(N(C)C(=O)Nc2c(Cl)c(OC)cc(OC)c2Cl)ncn1 | 3.07 µM | 15.1 µM | 13 µM | 27.3 µM | 11.7 µM | 37.6 µM | 3.09 µM | 10.3 µM | 4.16 µM | 18.3 µM | 2.48 µM | 14.2 µM | 4.77 µM | 20.3 µM | 4.77 µM | 40.8 µM | 11.1 µM | 23.1 µM | 22.9 µM | 5.35 µM
7 | O=C(Oc1ccc(CO[N+](=O)[O-])cc1)c1ccccc1 | 0.139 µM | 0.27 µM | 0.162 µM | 0.322 µM | 1.23 µM | 2.49 µM | 0.163 µM | 0.33 µM | 0.128 µM | 0.301 µM | 0.158 µM | 0.333 µM | 0.158 µM | 0.318 µM | 0.0911 µM | 0.422 µM | 0.163 µM | 0.308 µM | 0.381 µM | 0.18 µM
8 | Cc1cc(O)c(C2=NN(c3ccc(S(N)(=O)=O)cc3)C(c3ccc(Cl)cc3)C2)c(C)c1Cl (centres undefined) | 13.1 µM | 27.7 µM | 11.9 µM | 27.6 µM | 5.91 µM | 22.5 µM | 2.8 µM | 10.6 µM | 1.69 µM | 3.31 µM | 10.9 µM | 23.7 µM | 6.24 µM | 21.6 µM | 3.45 µM | 20 µM | 4.38 µM | 18.2 µM | 21.2 µM | 7.69 µM
9 | C=C1C(=O)OC2CC(C)C3CC(O)OC(OCC)C3(C)CC12 (centres undefined) | – | > 58.4 µM | – | 29.8 µM | – | > 96.6 µM | – | 42.6 µM | – | 33.5 µM | – | 50.8 µM | – | 18.8 µM | – | 72.8 µM | – | 42.9 µM | 50.3 µM | –
10 | COC(=O)C1=C(C(=O)OC)C2(C)C=CC1O2 (centres undefined) | – | 46 µM | – | 43.8 µM | – | > 100 µM | – | – | – | 32.6 µM | – | 66.2 µM | – | 5.56 µM | – | 72 µM | – | – | 27.2 µM | –
11 | OCc1ccc(-c2cscc2-c2ccc(CO)o2)o1 | > 87.5 µM | > 100 µM | 22.5 µM | > 100 µM | 3.89 µM | 30.6 µM | 97.4 µM | > 100 µM | 1.97 µM | 4.83 µM | 34.5 µM | > 100 µM | > 93.3 µM | > 100 µM | > 78.3 µM | > 100 µM | 5 µM | > 100 µM | 49.4 µM | 4.79 µM
12 | C#Cc1nc2ccccc2c(=O)[nH]1 | 0.222 µM | 0.422 µM | 2.15 µM | 6.19 µM | 2.96 µM | 12.9 µM | 1.39 µM | 2.94 µM | 0.818 µM | 2.42 µM | 1.8 µM | 5.16 µM | 0.765 µM | 2.18 µM | 1.69 µM | 7.12 µM | 1.43 µM | 3.47 µM | 2.79 µM | 1.38 µM
13 | c1cncc(CNCc2cccnc2)c1 | – | > 100 µM | – | > 100 µM | – | > 100 µM | – | > 100 µM | – | > 100 µM | – | > 100 µM | – | > 100 µM | – | > 100 µM | – | > 100 µM | > 100 µM | –
14 | CC(C)(C)OC(=O)NCCCn1c2c(c3ccccc3c1=O)C(=O)c1ccccc1-2 | 31.7 µM | > 100 µM | 49.3 µM | > 100 µM | 41.9 µM | > 100 µM | 67 µM | > 100 µM | > 100 µM | > 100 µM | – | – | 42.4 µM | > 100 µM | 15.8 µM | 71.6 µM | 6.86 µM | 22.2 µM | – | –
